Test results as given in ChEMBL document CHEMBL6178017, “Intercepting the Downstream of the Estrogen Receptor Signaling Pathway: Discovery of a Potent and Efficient SRC-3 PROTAC Degrader for Overcoming Endocrine Resistance Breast Cancer” (J Med Chem, 2025).
pIC50: −log10 of the molar value. The source made the active and inactive calls. No cut-off for these calls is given here.

Columns and labels:
[1] = biological target: T1, Protein cereblon/Nuclear receptor coactivator 3 (Homo sapiens, UniProt Q9Y6Q9+Q96SW2); test: PROTAC activity at CRBN/SRC-3 in human MCF7 cells overexpressing EGFR assessed as downregulation of ER-alpha level at 0.01 to 10 uM measured after 36 hrs by immunoblot analysis; assay type: cell-based; conditions: dose 0.01-10 µM
[2] = Tmax in Balb/c mouse at 20 mg/kg, po by LC-MS/MS analysis; assay type: ADME, organism-based; conditions: in vivo
[3] = Induction of cell cycle arrest in tamoxifen-resistant human LCC2 cells assessed as accumulation of cells at G2/M phase at 5 uM incubated for 48 hrs by propidium iodide staining based flow cytometry (reference value: 11.42%); assay type: functional
[4] = biological target: T1, Protein cereblon/Nuclear receptor coactivator 3; test: PROTAC activity at CRBN/SRC-3 in tamoxifen-resistant human LCC2 cells assessed as induction of SRC-3 degradation at 1 uM preincubated with proteasome inhibitor, MG-132 for 2 hrs followed by incubation with compound and measured after 36 hrs by immunoblot analysis; assay type: cell-based; conditions: Tamoxifen-resistant LCC2 cell
[5] = Hepatic clearance in human liver microsomes in presence of NADPH by LC-MS/MS analysis; assay type: ADME, Microsome
MCF7 [6] = test: Induction of apoptosis in human MCF7 cells assessed as maximal increase in early apoptotic cells at 10 uM incubated for 48 hrs by AnnexinV-FITC/PI staining based flow cytometry; assay type: functional
[7] = biological target: T1, Protein cereblon/Nuclear receptor coactivator 3; test: PROTAC activity at CRBN/SRC-3 in human MCF7 cells assessed as induction of SRC-3 degradation incubated for 24 hrs by immunoblot analysis; assay type: cell-based; conditions: dose 0.1-10 µM
[8] = Induction of apoptosis in tamoxifen-resistant human LCC2 cells assessed as viable cells at 10 uM incubated for 48 hrs by AnnexinV-FITC/PI staining based flow cytometry (reference value: 88.09%); assay type: functional; conditions: Tamoxifen-resistant LCC2 cell, read-out: Activity
[9] = AUC (0 to t) in Balb/c mouse at 4 mg/kg, ip by LC-MS/MS analysis; assay type: ADME, organism-based; conditions: in vivo
[10] = AUC(0 to t) in Balb/c mouse at 2 mg/kg, iv by LC-MS/MS analysis; assay type: ADME, organism-based; conditions: in vivo
[11] = biological target: Cereblon/Ikaros (Homo sapiens) (UniProt Q96SW2+Q13422); test: PROTAC activity at CRBN/IKZF1 in tamoxifen-resistant human LCC2 cells assessed as degradation of IKZF1 at 10 uM measured after 36 hrs by diaPASEF-based quantitative proteomics analysis; conditions: Tamoxifen-resistant LCC2 cell
Mus musculus [12] = test: In vivo PROTAC activity at CRBN/SRC-3 in Balb/c mouse xenografted with tamoxifen-resistant human LCC2 cells assessed as downregulation of ER-alpha protein level in tumor tissues at 5 uM/Kg, ip administered once every 2 days for 23 days and measured on day 25 by western blot analysis; assay type: functional, organism-based; conditions: time 25.0 day
[13] = Half life in Balb/c mouse at 4 mg/kg, ip by LC-MS/MS analysis; assay type: ADME, organism-based; conditions: in vivo
[14] = Induction of apoptosis in tamoxifen-resistant human LCC2 cells assessed as viable cells at 20 uM incubated for 48 hrs by AnnexinV-FITC/PI staining based flow cytometry (reference value: 88.09%); assay type: functional; conditions: Tamoxifen-resistant LCC2 cell, read-out: Activity
[15] = Induction of apoptosis in tamoxifen-resistant human LCC2 cells assessed as viable cells at 1 uM incubated for 48 hrs by AnnexinV-FITC/PI staining based flow cytometry (reference value: 88.09%); assay type: functional; conditions: Tamoxifen-resistant LCC2 cell, read-out: Activity
[16] = biological target: Protein cereblon/Nuclear receptor coactivator 2 (Homo sapiens) (UniProt Q15596+Q96SW2); test: PROTAC activity at CRBN/SRC-2 in human MCF7 cells assessed as induction of SRC-2 degradation at 0.01 to 10 uM measured after 36 hrs by immunoblot analysis; assay type: cell-based; conditions: dose 0.01-10 µM
[17] = biological target: T1, Protein cereblon/Nuclear receptor coactivator 3; test: PROTAC activity at CRBN/SRC-3 in human MCF7 cells overexpressing EGFR assessed as induction of SRC-3 degradation measured after 36 hrs by immunoblot analysis; assay type: cell-based; conditions: dose 0.01-10 µM
[18] = biological target: Protein cereblon/Zinc finger protein Helios (Homo sapiens) (UniProt Q96SW2+Q9UKS7); test: PROTAC activity at CRBN/IKZF2 in tamoxifen-resistant human LCC2 cells assessed as degradation of IKZF2 at 10 uM measured after 36 hrs by diaPASEF-based quantitative proteomics analysis; conditions: Tamoxifen-resistant LCC2 cell
[19] = Induction of apoptosis in tamoxifen-resistant human LCC2 cells assessed as early apoptotic cells at 5 uM incubated for 48 hrs by AnnexinV-FITC/PI staining based flow cytometry (reference value: 5.92%); assay type: functional, Tamoxifen-resistant LCC2 cell
[20] = test system: Tamoxifen-resistant LCC2 cell; test: Antitumor activity against tamoxifen-resistant human LCC2 cells xenografted in Balb/c mouse assessed as inhibition of tumor growth at 3 uM/Kg, ip administered once every 2 days for 23 days; assay type: functional, organism-based; conditions: time 23.0 day
MCF7 [21] = test: Antiproliferative activity against human MCF7 cells overexpressing EGFR assessed as inhibition of cell growth by CCK-8 assay; assay type: functional, cell-based
[22] = Induction of cell cycle arrest in tamoxifen-resistant human LCC2 cells assessed as accumulation of cells at S phase at 20 uM incubated for 48 hrs by propidium iodide staining based flow cytometry (reference value: 9.72%); assay type: functional
[23] = biological target: T1, Protein cereblon/Nuclear receptor coactivator 3; test: PROTAC activity at CRBN/SRC-3 in human MCF7 cells assessed as induction of SRC-3 degradation at 1 uM preincubated with proteasome inhibitor, bortezomib for 2 hrs followed by incubation with compound and measured after 36 hrs by immunoblot analysis; assay type: cell-based
Mus musculus [24] = test: In vivo PROTAC activity at CRBN/SRC-3 in Balb/c mouse xenografted with tamoxifen-resistant human LCC2 cells assessed as induction of SRC-3 degradation in tumor tissues at 3 uM/Kg, ip administered once every 2 days for 23 days and measured on day 25 by western blot analysis; assay type: functional, organism-based; conditions: time 25.0 day
Mus musculus [25] = test: In vivo PROTAC activity at CRBN/SRC-3 in Balb/c mouse xenografted with tamoxifen-resistant human LCC2 cells assessed as induction of SRC-3 degradation in tumor tissues at 5 uM/Kg, ip administered once every 2 days for 23 days and measured on day 25 by western blot analysis; assay type: functional, organism-based; conditions: time 25.0 day
[26] = biological target: T1, Protein cereblon/Nuclear receptor coactivator 3; test: PROTAC activity at CRBN/SRC-3 in human MCF7 assessed as induction of ER-alpha degradation at 0.1 to 10 uM incubated for 24 hrs by immunoblot analysis; assay type: cell-based; conditions: dose 0.1-10 µM
[27] = biological target: T1, Protein cereblon/Nuclear receptor coactivator 3; test: PROTAC activity at CRBN/SRC-3 in tamoxifen-resistant human LCC2 cells assessed as degradation of ER-alpha by measuring downregulation of ER-alpha protein level at 10 uM measured after 36 hrs by diaPASEF-based quantitative proteomics analysis; conditions: Tamoxifen-resistant LCC2 cell
[28] = biological target: T1, Protein cereblon/Nuclear receptor coactivator 3; test: PROTAC activity at CRBN/SRC-3 in tamoxifen-resistant human LCC2 cells assessed as degradation of SRC-3 at 10 uM measured after 36 hrs by diaPASEF-based quantitative proteomics analysis relative to control; conditions: Tamoxifen-resistant LCC2 cell
[29] = AUC (0 to infinity) in Balb/c mouse at 20 mg/kg, po by LC-MS/MS analysis; assay type: ADME, organism-based; conditions: in vivo
[30] = Half life in human liver microsomes in presence of NADPH by LC-MS/MS analysis; assay type: ADME, Microsome
[31] = biological target: T1, Protein cereblon/Nuclear receptor coactivator 3; test: PROTAC activity at CRBN/SRC-3 in tamoxifen-resistant human LCC2 cells assessed as induction of SRC-3 degradation at 0.1 to 10 uM incubated for 24 hrs by immunoblot analysis; assay type: cell-based; conditions: Tamoxifen-resistant LCC2 cell, dose 0.1-10 µM

T1 sequence (Q96SW2 whole entry partner): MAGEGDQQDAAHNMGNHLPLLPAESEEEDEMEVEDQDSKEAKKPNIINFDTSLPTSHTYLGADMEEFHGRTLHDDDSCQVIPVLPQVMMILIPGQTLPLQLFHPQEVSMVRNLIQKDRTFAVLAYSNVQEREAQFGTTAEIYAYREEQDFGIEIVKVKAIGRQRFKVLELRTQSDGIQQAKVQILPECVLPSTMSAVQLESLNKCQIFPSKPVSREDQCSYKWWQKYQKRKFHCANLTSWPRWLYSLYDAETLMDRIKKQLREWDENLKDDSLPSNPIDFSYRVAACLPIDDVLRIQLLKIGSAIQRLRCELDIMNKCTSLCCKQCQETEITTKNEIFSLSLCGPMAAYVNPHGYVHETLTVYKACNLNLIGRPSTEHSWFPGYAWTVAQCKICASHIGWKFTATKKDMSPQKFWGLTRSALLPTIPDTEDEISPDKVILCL
T1 sequence (Q9Y6Q9 2-1424 limits assumed): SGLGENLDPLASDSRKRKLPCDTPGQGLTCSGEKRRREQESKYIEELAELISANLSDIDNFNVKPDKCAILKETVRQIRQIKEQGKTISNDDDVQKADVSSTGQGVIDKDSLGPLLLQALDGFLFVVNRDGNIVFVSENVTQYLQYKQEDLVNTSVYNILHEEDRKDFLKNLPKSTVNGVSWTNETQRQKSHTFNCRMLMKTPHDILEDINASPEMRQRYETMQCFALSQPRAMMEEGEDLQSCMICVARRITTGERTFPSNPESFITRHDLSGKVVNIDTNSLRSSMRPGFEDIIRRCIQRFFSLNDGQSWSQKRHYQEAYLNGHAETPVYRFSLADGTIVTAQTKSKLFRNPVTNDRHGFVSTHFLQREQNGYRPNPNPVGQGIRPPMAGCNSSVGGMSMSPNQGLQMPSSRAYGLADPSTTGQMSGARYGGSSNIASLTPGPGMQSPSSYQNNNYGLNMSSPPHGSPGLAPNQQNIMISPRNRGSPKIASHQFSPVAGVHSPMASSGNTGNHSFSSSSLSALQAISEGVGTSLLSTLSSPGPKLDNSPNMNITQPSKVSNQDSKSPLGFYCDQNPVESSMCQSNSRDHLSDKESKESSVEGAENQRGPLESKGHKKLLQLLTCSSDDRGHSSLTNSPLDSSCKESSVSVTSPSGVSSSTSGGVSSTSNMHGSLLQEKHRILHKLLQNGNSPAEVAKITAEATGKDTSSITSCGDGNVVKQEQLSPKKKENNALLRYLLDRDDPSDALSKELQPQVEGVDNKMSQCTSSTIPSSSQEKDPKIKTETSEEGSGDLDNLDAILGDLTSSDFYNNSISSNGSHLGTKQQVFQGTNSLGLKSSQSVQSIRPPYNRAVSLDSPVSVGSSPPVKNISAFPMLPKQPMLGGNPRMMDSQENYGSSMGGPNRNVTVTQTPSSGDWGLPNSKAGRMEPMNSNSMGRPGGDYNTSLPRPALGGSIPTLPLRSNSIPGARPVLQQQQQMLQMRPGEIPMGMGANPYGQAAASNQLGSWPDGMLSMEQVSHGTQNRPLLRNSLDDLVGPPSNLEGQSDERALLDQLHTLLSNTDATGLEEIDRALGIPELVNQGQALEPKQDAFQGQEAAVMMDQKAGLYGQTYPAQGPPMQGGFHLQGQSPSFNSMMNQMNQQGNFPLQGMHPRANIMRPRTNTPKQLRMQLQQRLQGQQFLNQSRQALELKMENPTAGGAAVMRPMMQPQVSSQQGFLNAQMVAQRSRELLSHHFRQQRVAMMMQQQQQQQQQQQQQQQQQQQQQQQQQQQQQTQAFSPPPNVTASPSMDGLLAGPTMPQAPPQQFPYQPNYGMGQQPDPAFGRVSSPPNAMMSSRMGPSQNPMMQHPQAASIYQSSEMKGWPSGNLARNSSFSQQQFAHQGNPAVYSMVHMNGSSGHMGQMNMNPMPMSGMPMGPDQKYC
Chain of Protein cereblon/Zinc finger protein Helios (Homo sapiens) (Q96SW2 whole entry, looked up): as the sequence (Q96SW2 whole entry partner) above
Chain of Protein cereblon/Zinc finger protein Helios (Homo sapiens) (Q9UKS7 whole entry, looked up): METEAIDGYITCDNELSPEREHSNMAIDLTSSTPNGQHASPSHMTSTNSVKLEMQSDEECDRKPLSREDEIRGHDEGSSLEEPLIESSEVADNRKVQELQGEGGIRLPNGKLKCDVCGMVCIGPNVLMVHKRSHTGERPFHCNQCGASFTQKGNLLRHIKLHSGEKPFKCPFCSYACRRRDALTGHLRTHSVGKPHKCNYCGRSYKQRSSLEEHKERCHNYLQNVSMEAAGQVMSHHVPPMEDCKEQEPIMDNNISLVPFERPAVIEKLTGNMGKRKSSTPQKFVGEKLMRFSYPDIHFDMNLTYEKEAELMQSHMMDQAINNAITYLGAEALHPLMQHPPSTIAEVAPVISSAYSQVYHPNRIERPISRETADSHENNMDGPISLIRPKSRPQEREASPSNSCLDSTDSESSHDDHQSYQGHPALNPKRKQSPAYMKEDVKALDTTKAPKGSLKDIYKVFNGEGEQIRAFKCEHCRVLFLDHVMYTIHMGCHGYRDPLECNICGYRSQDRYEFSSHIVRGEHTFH
Chain of Protein cereblon/Nuclear receptor coactivator 2 (Homo sapiens) (Q15596 whole entry, looked up): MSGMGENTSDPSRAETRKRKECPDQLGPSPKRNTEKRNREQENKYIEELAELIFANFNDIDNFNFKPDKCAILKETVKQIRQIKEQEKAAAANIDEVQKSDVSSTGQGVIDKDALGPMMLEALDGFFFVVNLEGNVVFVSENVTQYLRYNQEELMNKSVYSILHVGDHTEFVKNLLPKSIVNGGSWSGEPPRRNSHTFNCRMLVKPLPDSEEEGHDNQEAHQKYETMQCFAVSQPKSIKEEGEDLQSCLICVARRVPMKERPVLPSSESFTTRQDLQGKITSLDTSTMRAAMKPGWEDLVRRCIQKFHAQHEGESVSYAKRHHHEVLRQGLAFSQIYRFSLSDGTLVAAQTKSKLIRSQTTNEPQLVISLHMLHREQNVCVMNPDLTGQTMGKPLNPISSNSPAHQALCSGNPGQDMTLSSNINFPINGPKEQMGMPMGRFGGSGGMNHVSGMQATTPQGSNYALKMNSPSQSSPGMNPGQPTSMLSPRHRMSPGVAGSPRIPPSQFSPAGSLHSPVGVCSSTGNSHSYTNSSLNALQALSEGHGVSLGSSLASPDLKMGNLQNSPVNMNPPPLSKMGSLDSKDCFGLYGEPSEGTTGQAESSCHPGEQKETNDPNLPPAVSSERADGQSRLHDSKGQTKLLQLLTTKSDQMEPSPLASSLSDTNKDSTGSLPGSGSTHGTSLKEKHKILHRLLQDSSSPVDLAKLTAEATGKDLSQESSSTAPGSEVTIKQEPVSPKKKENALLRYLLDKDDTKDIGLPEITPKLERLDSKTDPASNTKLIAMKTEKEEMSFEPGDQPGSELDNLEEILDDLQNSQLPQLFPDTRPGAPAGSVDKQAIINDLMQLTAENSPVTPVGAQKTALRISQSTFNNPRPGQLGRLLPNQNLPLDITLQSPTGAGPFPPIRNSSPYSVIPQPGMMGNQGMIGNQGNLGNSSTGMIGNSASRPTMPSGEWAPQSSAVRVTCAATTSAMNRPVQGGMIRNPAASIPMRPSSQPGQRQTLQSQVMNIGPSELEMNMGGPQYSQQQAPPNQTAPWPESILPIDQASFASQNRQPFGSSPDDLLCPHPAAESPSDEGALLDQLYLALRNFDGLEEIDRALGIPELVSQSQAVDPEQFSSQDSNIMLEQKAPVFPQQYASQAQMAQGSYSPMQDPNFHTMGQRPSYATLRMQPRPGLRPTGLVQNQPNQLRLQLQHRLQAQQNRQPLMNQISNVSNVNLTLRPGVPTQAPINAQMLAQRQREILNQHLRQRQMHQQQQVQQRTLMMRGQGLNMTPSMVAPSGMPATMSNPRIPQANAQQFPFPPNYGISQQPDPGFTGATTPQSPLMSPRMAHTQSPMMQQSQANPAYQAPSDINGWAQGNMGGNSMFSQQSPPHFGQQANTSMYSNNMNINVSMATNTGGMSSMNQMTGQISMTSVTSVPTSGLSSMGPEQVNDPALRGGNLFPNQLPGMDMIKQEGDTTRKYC
Chain of Protein cereblon/Nuclear receptor coactivator 2 (Homo sapiens) (Q96SW2 whole entry, looked up): as the sequence (Q96SW2 whole entry partner) above

In the case of `C/C(=N\Nc1nc2ccccc2n1C1CN(C2CCN(c3cccc4c3C(=O)N(C3CCC(=O)NC3=O)C4=O)CC2)C1)c1ccccn1` (stereo unspecified), the Activity [1] was “Active”, the Tmax [2] was 19.8 min and the Activity [3] was 4.62%. For the same molecule, the Activity [4] was “inactive”, the CLhep predicted [5] was 18.7 mL/min/kg and the Activity (MCF7 [6]) was ~35%. The Activity [7] was “Dose-dependent-effect”, the viability at 10 µM [8] was 48.7% and the AUC(0-t) [9] was 49.1 ng·h/mL. The AUC(0-t) [10] was 318 ng·h/mL, the Activity [11] was “inactive” and the Activity (Mus musculus [12]) was “Active”. The half-life [13] was 208 min, the viability at 20 µM [14] was 42.7% and the viability at 1 µM [15] was 51.4%. For the same molecule, the Activity [16] was “Active; Minimal Activity Against Src-2 Compared To Src-3 Observed”, the Activity [17] was “Dose-dependent-effect” and the Activity [18] was “inactive”. The Activity [19] was 10.14%, the Activity [20] was “Active” and the pIC50 (MCF7 [21]) was 7.15. For the same molecule, the Activity [22] was 11.58%, the Activity [23] was “inactive” and the Activity (Mus musculus [24]) was “Active”. The Activity (Mus musculus [25]) was “Active”, the Activity [26] was “Active” and the Activity [27] was “Active”. The log2FC [28] was 0.25, the AUC(0-inf) [29] was 58.4 ng·h/mL and the half-life [30] was 8.46 min. For the same molecule, the Activity [31] was “Active”.
